According to patent US9862680B2, “Peripherally substituted monocyclic beta-lactams” (University of Notre Dame du Lac, priority 2016, dated 2018):

Legend:
NDM-1 = target: T1, NDM-1 (Klebsiella pneumoniae, UniProt C7C422); assay: β-lactamase inhibition, Ki by enzyme kinetics (imipenem); type: biochemical; settings: NDM-1, class B
T1 construct: purchased Emerald Bioscience
Procedure: (§1) The enzymes KPC-2, Oxa-48, AmpC and NDM-1 were purchased from Emerald Bioscience and the enzymes CTX-14 and SHV-12 were expressed and purified from E. coli at Rempex pharmaceutical (San Diego, Calif.).
(§2) To the first row of a 2-mL deep 96-well block was added 1 mL of 50 mM sodium phosphate buffer at pH 7 with 0.1 mg/mL BSA (bovine serum albumin). To the first row was added an appropriate amount of a 10 mg/mL solution of the compound to be tested to make a 640 μM (4×) solution. Each of the other wells in the 96-well block were charged with 750 μL of the aforementioned buffer. The rows were then repeatedly diluted 1:3 so that the final concentrations of the individual 96-well plates would range in concentrations from 160 μM to 3 nM (8 dilutions). The master block was then used to add 50 pt to each corresponding well in the 96-well flat-bottom plate. An additional 50 of buffer was added to each well. Once the plates were prepared, 50 μL of the enzyme to be tested against were added in buffer to each well [KPC-2 (0.147 mg/mL), CTX-M-14 (0.102 mg/mL), […] (0.331 mg/mL), AmpC (0.699 mg/mL), SHV-12 (0.111 mg/mL), NDM-1 (0.110 mg/mL)]. The plates were incubated at rt for 10 min before 50 μL. of an appropriate indicator were added to each well and the optical density at 495 nm was measured over time. For each enzyme, other than NDM-1, nitrocefin was used. Nitrocefin (10 μM for SHV-12, 50 μM for the other enzymes), was appropriate because when cleaved by a β-lactamase, the color changes from yellow to red. For NDM-1, imipenem (10 μM) was the indicator of choice. Rather than observe the growing presence of optical density at 495 nm, as with nitrocefin, the disappearance of imipenem was monitored. The inhibition curves were monitored and used to perform enzyme kinetics according to Waley to determine the Ki (μM) of each compound against the β-lactamases screened.

A. Baumannii ATCC 17961 = assay: Agar diffusion assay (modified Kirby-Bauer); type: cell-based; settings: 2 mM solution, 50 μL in 9.0 mm well, P unclear, V very unclear zone, * slightly misshapen zone
Procedure: (§3) Antibacterial activity of the compounds was determined by a modified Kirby-Bauer^27-28 agar-diffusion assay. Overnight cultures of test organisms were grown in LB broth for 18-24h and standard suspensions of […] were prepared in saline solution (0.9% NaCl) according to a 0.5 BaSO4 McFarland Standard. This standardized suspension (0.1 mL) was added to 34 mL of sterile, Mueller Hinton No. 2 agar tempered to 47-50° C. After gentle mixing, the inoculated agar media was poured into a sterile plastic petri dish (145 mm×20 mm) and allowed to solidify near a flame with the lid cracked for 30 min. Wells of 9.0 mm diameter were cut from the petri dish agar and filled with exactly 50 μL of the test sample solution. For studies using mixtures of compounds, both test compounds were diluted to equal concentrations and 50 μL of the mixed compound solution was added to the cut well. The petri dish was incubated at 37° C. for 18-24 h and the inhibition zone diameters were measured (mm) with an electronic caliper after 24-48 h.
(§4) All compound-containing solutions were prepared by first making a 20 mM solution of the compound in DMSO and then diluting that solution 10-fold with MeOH to give the final 2 mM solution used in the assay.
(§5) Plates were incubated after inoculation at 37° C. for 20 hours. Plates were photographed after 1 day. M. vaccae required a longer incubation time, 48 hours, and was photographed after 3 days.

E. Coli DC2 = assay: Agar diffusion assay (modified Kirby-Bauer); type: cell-based; settings: E. Coli DC2; 2 mM solution, 50 μL in 9.0 mm well; P unclear, V very unclear zone, * slightly misshapen zone
Procedure: as §3, §4, §5

P. Aeruginosa K799/wt = assay: Agar diffusion assay (modified Kirby-Bauer); type: cell-based; settings: P. Aeruginosa K799/wt (wild type); 2 mM solution, 50 μL in 9.0 mm well; P unclear, V very unclear zone, * slightly misshapen zone
Procedure: as §3, §4, §5

E. Coli DC0 = assay: Agar diffusion assay (modified Kirby-Bauer); type: cell-based; settings: 2 mM solution, 50 μL in 9.0 mm well, P unclear, V very unclear zone, * slightly misshapen zone
Procedure: as §3, §4, §5

B. Dolosa AU 0018 = assay: Agar diffusion assay (modified Kirby-Bauer); type: cell-based; settings: 2 mM solution, 50 μL in 9.0 mm well, P unclear, V very unclear zone, * slightly misshapen zone
Procedure: as §3, §4, §5

P. Aeruginosa K799/61 = assay: Agar diffusion assay (modified Kirby-Bauer); type: cell-based; settings: P. Aeruginosa K799/61 (permeability mutant); 2 mM solution, 50 μL in 9.0 mm well; P unclear, V very unclear zone, * slightly misshapen zone
Procedure: as §3, §4, §5

Oxa-48 = target: T2, Oxa-48 (Klebsiella pneumoniae, UniProt Q6XEC0); assay: β-lactamase inhibition, Ki by enzyme kinetics (nitrocefin); type: biochemical; settings: Oxa-48, class D
T2 construct: purchased Emerald Bioscience
Procedure: as §1, §2

CTX-M-14 = target: T3, CTX-M-14 (Escherichia coli, UniProt Q9L5C7); assay: as above; type: biochemical; settings: CTX-M-14, class A
T3 construct: host or cells: E. coli
Procedure: as §1, §2

KPC-2 = target: T4, KPC-2 (Klebsiella pneumoniae, UniProt Q9F663); assay: as above; type: biochemical; settings: KPC-2, class A
T4 construct: purchased Emerald Bioscience
Procedure: as §1, §2

AmpC = assay: as above; type: biochemical; settings: class C
Procedure: as §1, §2

SHV-12 = target: T5, SHV-12 (Klebsiella pneumoniae, UniProt P0AD64, E235K/G234S/L31Q); assay: as above; type: biochemical; settings: SHV-12, class A
T5 construct: host or cells: E. coli
Procedure: as §1, §2

PAM 2035 = assay: β-lactamase inhibition, Ki by enzyme kinetics; type: biochemical; settings: PAM 2035, class C
M. Luteus ATCC 10240 = assay: Agar diffusion assay (modified Kirby-Bauer); type: cell-based; settings: M. Luteus ATCC 10240; 2 mM solution, 50 μL in 9.0 mm well; P unclear, V very unclear zone, * slightly misshapen zone
Procedure: as §3, §4, §5

M. Vaccae IMET 10670 = assay: Agar diffusion assay (modified Kirby-Bauer); type: cell-based; settings: 2 mM solution, 50 μL in 9.0 mm well, 48 hours incubation, P unclear, V very unclear zone, * slightly misshapen zone
Procedure: as §3, §4, §5

S. Aureus SG511 = assay: Agar diffusion assay (modified Kirby-Bauer); type: cell-based; settings: 2 mM solution, 50 μL in 9.0 mm well, P unclear, V very unclear zone, * slightly misshapen zone
Procedure: as §3, §4, §5

B. Subtilis ATCC 6633 = assay: Agar diffusion assay (modified Kirby-Bauer); type: cell-based; settings: 2 mM solution, 50 μL in 9.0 mm well, P unclear, V very unclear zone, * slightly misshapen zone
Procedure: as §3, §4, §5

T3 sequence (Q9L5C7 entry or part of it): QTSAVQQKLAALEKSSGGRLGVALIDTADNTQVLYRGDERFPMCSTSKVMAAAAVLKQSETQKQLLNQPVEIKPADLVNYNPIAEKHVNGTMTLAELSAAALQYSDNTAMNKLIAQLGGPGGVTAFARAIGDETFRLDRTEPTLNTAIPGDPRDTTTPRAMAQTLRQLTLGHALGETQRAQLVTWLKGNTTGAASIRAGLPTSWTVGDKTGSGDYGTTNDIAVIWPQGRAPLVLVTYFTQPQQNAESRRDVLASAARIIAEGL
T2 sequence (Q6XEC0 23-265 limits assumed): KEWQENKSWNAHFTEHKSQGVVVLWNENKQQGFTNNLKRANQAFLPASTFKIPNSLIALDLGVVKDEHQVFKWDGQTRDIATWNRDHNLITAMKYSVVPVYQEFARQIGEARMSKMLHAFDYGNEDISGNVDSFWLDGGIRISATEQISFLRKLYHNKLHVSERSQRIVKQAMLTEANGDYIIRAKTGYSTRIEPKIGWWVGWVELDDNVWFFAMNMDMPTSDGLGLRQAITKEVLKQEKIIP
T1 sequence (C7C422 29-270 limits assumed): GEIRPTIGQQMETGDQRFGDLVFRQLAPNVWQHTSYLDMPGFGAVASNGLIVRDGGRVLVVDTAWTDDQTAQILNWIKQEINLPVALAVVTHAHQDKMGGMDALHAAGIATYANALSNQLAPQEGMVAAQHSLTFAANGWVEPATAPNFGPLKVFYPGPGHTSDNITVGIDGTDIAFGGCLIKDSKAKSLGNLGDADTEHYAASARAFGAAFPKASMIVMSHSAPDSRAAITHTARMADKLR
T4 sequence (Q9F663 25-293 limits assumed): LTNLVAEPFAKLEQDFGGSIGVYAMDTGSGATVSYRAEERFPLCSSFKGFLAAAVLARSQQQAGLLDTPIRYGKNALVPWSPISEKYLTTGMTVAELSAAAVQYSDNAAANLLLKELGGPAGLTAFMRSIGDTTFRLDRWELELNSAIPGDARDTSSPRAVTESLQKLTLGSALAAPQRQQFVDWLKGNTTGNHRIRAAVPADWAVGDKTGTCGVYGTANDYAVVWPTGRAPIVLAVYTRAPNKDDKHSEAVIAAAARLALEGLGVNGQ
T5 sequence (P0AD64 22-286 L31Q/G234S/E235K): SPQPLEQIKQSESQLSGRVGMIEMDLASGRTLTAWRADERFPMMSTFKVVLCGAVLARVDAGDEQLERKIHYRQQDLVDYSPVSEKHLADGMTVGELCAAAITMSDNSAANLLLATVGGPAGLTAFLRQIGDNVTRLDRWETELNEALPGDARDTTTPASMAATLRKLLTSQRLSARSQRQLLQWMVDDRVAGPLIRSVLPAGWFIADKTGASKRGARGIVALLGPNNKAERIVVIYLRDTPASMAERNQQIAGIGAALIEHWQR

SMILES | Ki (NDM-1) [µM] | Zone of Growth Inhibition (A. Baumannii ATCC 17961) | Zone of Growth Inhibition (E. Coli DC2) | Zone of Growth Inhibition (P. Aeruginosa K799/wt) [mm] | Zone of Growth Inhibition (E. Coli DC0) [mm] | Zone of Growth Inhibition (B. Dolosa AU 0018) [mm] | Zone of Growth Inhibition (P. Aeruginosa K799/61) | Ki (Oxa-48) [µM] | Ki (CTX-M-14) [µM] | Ki (KPC-2) [µM] | Ki (AmpC) [µM] | Ki (SHV-12) [µM] | Ki (PAM 2035) [µM] | Zone of Growth Inhibition (M. Luteus ATCC 10240) | Zone of Growth Inhibition (M. Vaccae IMET 10670) | Zone of Growth Inhibition (S. Aureus SG511) | Zone of Growth Inhibition (B. Subtilis ATCC 6633) [mm]
CC(C)c1cc(C(C)C)c(S(=O)(=O)ON2C(=O)CC2CBr)c(C(C)C)c1 (stereo not shown) [Compound 61d] | > 160 | 0 mm | 0 mm | 0 | 0 | 0 | 0 mm | > 160 | > 160 | > 160 | > 160 | > 160 | > 160 | – | – | – | –
O=C1CC(CBr)N1OS(=O)(=O)c1ccc([N+](=O)[O-])cc1 (stereo not shown) [Compound 61e] | – | 0 mm | 0 mm | 0 | 0 | 0 | 12.6* mm | – | – | – | – | – | – | 0 mm | 0 mm | 0 mm | –
O=C1CC(CBr)N1OS(=O)(=O)c1ccc([N+](=O)[O-])cc1[N+](=O)[O-] (stereo not shown) [Compound 61f] | – | 16V | 16P | 0 | 0 | 0 | 0 mm | – | – | – | – | – | – | 18P | 28 mm | 21P | 22
Cc1ccc(S(=O)(=O)ON2C(=O)CC2CBr)cc1 (stereo not shown) [Compound 61g] | – | 13.5 mm | 0 mm | 0 | 0 | 0 | 0 mm | – | – | – | – | – | – | 16P | 19V | 18V | 0
CN(C)c1cccc2c(S(=O)(=O)ON3C(=O)CC3CBr)cccc12 (stereo not shown) [Compound 61h] | – | 0 mm | 0 mm | 0 | 0 | 0 | 0 mm | – | – | – | – | – | – | – | – | 15* mm | –
